According to PubChem BioAssay (NCI):
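48-hour exposure; five concentrations; linearly interpolated endpoints. The concentration for 50% growth inhibition is given as GI50. TGI: total growth inhibition.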

Legend:
Test in all cases: inhibition of tumour cell growth, NCI panel, 48 h
[1] = test system: RPMI-8226 leukemia
[2] = test system: HS 578T breast
[3] = test system: COLO 205 colon
[4] = test system: MDA-MB-231 breast
[5] = test system: SNB-75 CNS
[6] = test system: SF-268 CNS
[7] = test system: CAKI-1 renal
[8] = test system: OVCAR-5 ovarian
[9] = test system: OVCAR-8 ovarian
[10] = test system: NCI-H23 lung
[11] = test system: HCT-15 colon
[12] = test system: SNB-19 CNS
[13] = test system: OVCAR-4 ovarian
[14] = test system: SK-OV-3 ovarian
[15] = test system: UACC-257 melanoma
[16] = test system: NCI/ADR-RES ovarian
[17] = test system: OVCAR-3 ovarian
[18] = test system: M14 melanoma
[19] = test system: SR leukemia
[20] = test system: PC-3 prostate
[21] = test system: SN12C renal
[22] = test system: HT29 colon
[23] = test system: LOX IMVI melanoma
[24] = test system: HCC-2998 colon
[25] = test system: DU-145 prostate
[26] = test system: RXF 393 renal
[27] = test system: SF-295 CNS
[28] = test system: K-562 leukemia
[29] = test system: EKVX NSCLC
[30] = test system: MOLT-4 leukemia
[31] = test system: HOP-62 NSCLC
[32] = test system: HCT-116 colon
[33] = test system: BT-549 breast
[34] = test system: NCI-H460 lung
[35] = test system: A549 NSCLC
[36] = test system: MDA-MB-435
[37] = test system: CCRF-CEM leukemia
[38] = test system: UACC-62 melanoma
[39] = test system: ACHN renal
[40] = test system: IGROV1 ovarian
[41] = test system: A498 renal
[42] = test system: SF-539 CNS
[43] = test system: SK-MEL-5 melanoma
[44] = test system: HOP-92 NSCLC
[45] = test system: SW-620 colon
[46] = test system: HL-60(TB) leukemia
[47] = test system: UO-31 renal
[48] = test system: KM12 colon
[49] = test system: 786-0 renal
[50] = test system: T-47D breast
[51] = test system: SK-MEL-2 melanoma
[52] = test system: MCF7 breast
[53] = test system: NCI-H522 lung
[54] = test system: U251 CNS
[55] = test system: SK-MEL-28 melanoma
[56] = test system: NCI-H226 lung
[57] = test system: TK-10 renal

SMILES: COc1ccc(/C=N/Nc2nc(N)nc(N3CCCC3)c2C#N)cc1
- GI50 [1]: 14.1 µM
- TGI [1]: 39 µM
- GI50 [2]: 13 µM
- TGI [2]: 34 µM
- GI50 [3]: 37.1 µM
- TGI [3]: > 100 µM
- GI50 [4]: 12.2 µM
- TGI [4]: 32.9 µM
- GI50 [5]: 23.6 µM
- TGI [5]: 51.8 µM
- GI50 [6]: 17.7 µM
- TGI [6]: 42 µM
- GI50 [7]: 20.9 µM
- TGI [7]: 40.3 µM
- GI50 [8]: 24.3 µM
- TGI [8]: 47 µM
- GI50 [9]: 7.82 µM
- TGI [9]: 47.2 µM
- GI50 [10]: 20.5 µM
- TGI [10]: 48.1 µM
- GI50 [11]: 17.2 µM
- TGI [11]: 47.2 µM
- GI50 [12]: 25.7 µM
- TGI [12]: 72.5 µM
- GI50 [13]: 23.3 µM
- TGI [13]: 47.4 µM
- GI50 [14]: 27.1 µM
- TGI [14]: 73.3 µM
- GI50 [15]: 21.6 µM
- TGI [15]: 44.7 µM
- GI50 [16]: 14.1 µM
- TGI [16]: 40.2 µM
- GI50 [17]: 21.5 µM
- TGI [17]: 40.2 µM
- GI50 [18]: 17 µM
- TGI [18]: 36.5 µM
- GI50 [19]: 7.72 µM
- TGI [19]: 27.5 µM
- GI50 [20]: 14.7 µM
- TGI [20]: 32.2 µM
- GI50 [21]: 18.6 µM
- TGI [21]: 35.8 µM
- GI50 [22]: 34.7 µM
- TGI [22]: > 100 µM
- GI50 [23]: 7.39 µM
- TGI [23]: > 100 µM
- GI50 [24]: 8.59 µM
- TGI [24]: 26.1 µM
- GI50 [25]: 11.8 µM
- TGI [25]: 32 µM
- GI50 [26]: 10.2 µM
- TGI [26]: 31.1 µM
- GI50 [27]: 16.8 µM
- TGI [27]: 36 µM
- GI50 [28]: 13 µM
- TGI [28]: 28.7 µM
- GI50 [29]: 25.9 µM
- TGI [29]: 60.3 µM
- GI50 [30]: 17.8 µM
- TGI [30]: 58.9 µM
- GI50 [31]: 20.2 µM
- TGI [31]: 40.9 µM
- GI50 [32]: 5.89 µM
- TGI [32]: 22.5 µM
- GI50 [33]: 19.1 µM
- TGI [33]: 46.3 µM
- GI50 [34]: 16.4 µM
- TGI [34]: 46.7 µM
- GI50 [35]: 13.4 µM
- TGI [35]: 50.8 µM
- GI50 [36]: 24.1 µM
- TGI [36]: 64.6 µM
- GI50 [37]: 17.2 µM
- TGI [37]: 49.2 µM
- GI50 [38]: 18.9 µM
- TGI [38]: 38.4 µM
- GI50 [39]: 17.4 µM
- TGI [39]: 34.5 µM
- GI50 [40]: 21 µM
- TGI [40]: 44.4 µM
- GI50 [41]: 12.9 µM
- TGI [41]: 28.1 µM
- GI50 [42]: 6.5 µM
- TGI [42]: 21.8 µM
- GI50 [43]: 19.3 µM
- TGI [43]: 39 µM
- GI50 [44]: 17.8 µM
- TGI [44]: 36.4 µM
- GI50 [45]: 30.4 µM
- TGI [45]: > 100 µM
- GI50 [46]: 28.2 µM
- TGI [46]: 86.6 µM
- GI50 [47]: 20.6 µM
- TGI [47]: 38.1 µM
- GI50 [48]: 24.8 µM
- TGI [48]: 70.8 µM
- GI50 [49]: 16.2 µM
- TGI [49]: 31.2 µM
- GI50 [50]: 31.2 µM
- TGI [50]: 89.4 µM
- GI50 [51]: 21.4 µM
- TGI [51]: 46.1 µM
- GI50 [52]: 15.3 µM
- TGI [52]: 47.8 µM
- GI50 [53]: 21.9 µM
- TGI [53]: 47.7 µM
- GI50 [54]: 17.6 µM
- TGI [54]: 45.2 µM
- GI50 [55]: 30.3 µM
- TGI [55]: 78.2 µM
- GI50 [56]: 12.4 µM
- TGI [56]: 30.6 µM
- GI50 [57]: 19.4 µM
- TGI [57]: 39.9 µM
